Data reported in patent publication US6051718A, “PDE IV inhibiting 2-cyanoiminoimidazole derivatives” (Janssen Pharmaceutica, N.V., priority 1996, dated 2000).

The compounds below were run against T1, recombinant human MNL phosphodiesterase PDE IV B (Homo sapiens, UniProt Q07343) (assay: Inhibition of recombinant human mononuclear lymphocyte (MNL) phosphodiesterase type IV B produced in insect cells with a baculovirus vector). Conditions: 3H-cAMP 0.8 μM, 10 minutes, 37° C., pH 8, DMSO 1%.
T1 construct: made in house
Assay type: biochemical
Description: Example C.1: Inhibition of Recombinant Human Mononuclear Lymphocyte (MNL) Phosphodiesterase Type IV B Produced in Insect Cells with a Baculovirus Vector
The alleviating and/or curing effect of the instant compounds on allergic and atopic diseases was assessed by an in vitro assay system to detect an inhibiting effect on the recombinant human MNL phosphodiesterase type IV B.
Seventy-two hours after infection with recombinant baculovirus, the insect cells were harvested and pelleted at 500 g for 5 minutes. The cells were lysed in 10 ml lysis-buffer consisting of 20 mM Tris, 10 mM EGTA, 2 mM Na2 EDTA, 1% Triton-X-100, 1 mM Na3 VO4, 10 mM NaF, 2 μg/ml of leupeptine, pepstatine and aprotinine, 0.3 μg/ml benzamidine and 100 μg/ml TPCK pH 7.5. After 5 minutes on ice, solubilized cells were centrifuged at 4000 rpm for 15 minutes at 4° C. The resulting supernatant was filtered through a 0.45 μm filter (Millipore) and brought to TBS buffer (50 mM Tris, 150 mM NaCl pH 7.4).
After washing the column with equilibration buffer, PDE IV was eluted in 1.5 ml fractions containing 37.5 μl 1M Tris pH 8. The fractions were dialyzed overnight against 20 mM Tris, 2 mM Na2 EDTA and 400 mM NaCl pH 7.5 and tested for PDE IV activity. Indentification was done on SDS PAGE and Western Blot (anti-FLAG-M2). Active fractions were pooled, brought to 10% glycerol and stored at -70° C.
The incubation mixture (pH 8) (200 μl) contained 20 mM Tris, 10 mM magnesium sulphate, 0.8 μM ^3 H-cAMP (310 mCi/mmole) and the phosphodiesterase type IV, the amount depending on the enzymatic activity. […] When the effect of different compounds on phosphodiesterase activity was tested, the medium without cAMP was incubated with the compound(s) or its carrier (DMSO-1% final concentration) for 5 minutes. […] After cooling to room temperature, alkaline phosphatase (0.25 μg/ml) was added and the mixture was incubated at 37° C. for 20 min. 100 μl of the mixture was subsequently applied to a GF-B filter-microtiter-plate (Millipore) filled with 300 μl DEAE-Sephadex-A25 suspension. The plate was washed 3 times with 75 μl 20 mM Tris pH 7.5 and the filtrates were collected for counting in the Packard Top Count scintillation counter.
The inhibiting effect of the present compounds on recombinant human MNL phosphodiesterase PDE IV B was measured at different concentrations of the instant compounds.

T1 sequence (Q07343 whole entry): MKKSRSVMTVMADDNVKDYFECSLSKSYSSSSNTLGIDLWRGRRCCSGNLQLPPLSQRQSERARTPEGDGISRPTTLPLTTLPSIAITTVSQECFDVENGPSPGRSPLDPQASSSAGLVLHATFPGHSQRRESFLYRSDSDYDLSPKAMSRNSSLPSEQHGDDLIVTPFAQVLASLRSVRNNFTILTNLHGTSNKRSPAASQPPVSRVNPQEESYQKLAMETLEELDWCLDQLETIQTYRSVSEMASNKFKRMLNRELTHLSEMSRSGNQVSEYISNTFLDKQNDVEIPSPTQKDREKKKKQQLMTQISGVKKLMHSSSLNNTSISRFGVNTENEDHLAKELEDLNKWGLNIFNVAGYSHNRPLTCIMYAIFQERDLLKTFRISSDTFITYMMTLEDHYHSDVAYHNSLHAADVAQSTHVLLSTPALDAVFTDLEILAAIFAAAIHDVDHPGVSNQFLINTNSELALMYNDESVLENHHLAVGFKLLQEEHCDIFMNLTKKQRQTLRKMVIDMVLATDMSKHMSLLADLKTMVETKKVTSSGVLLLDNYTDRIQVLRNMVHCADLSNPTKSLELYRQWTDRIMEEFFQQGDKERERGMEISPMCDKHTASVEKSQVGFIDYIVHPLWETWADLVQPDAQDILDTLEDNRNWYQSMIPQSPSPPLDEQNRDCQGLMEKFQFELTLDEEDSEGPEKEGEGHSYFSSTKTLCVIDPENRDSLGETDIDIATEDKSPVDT

**Q.** For `COc1ccc(C(C)CN2CCNC2=NC#N)cc1OC1CCCC1` (racemic) [Compound 1, (±)-[1-[2-[3-(cyclopentyloxy)-4-methoxyphenyl]propyl]-2-imidazolidinylidene] cyanamide], which IC50 is on record?
**A.** Its IC50 is 330 nM.

**Q.** How did the IC50 turn out when `CC(Cn1cc[nH]c1=NC#N)c1ccc(OC(F)F)c(OC2CCOC2)c1` (racemic) [Compound 2, (±)-[1-[2-[4-(difluoromethoxy)-3-[(tetrahydro-3-furanyl)oxy]phenyl]-propyl]-1,3-dihydro-2H-imidazol-2-ylidene]cyanamide] was run?
**A.** The IC50 was 100 nM.

**Q.** With `COc1ccc(C(C)Cn2ccnc2NC#N)cc1OC1CCCC1` (single isomer, unassigned) [Compound 12] as the compound, how does the IC50 read?
**A.** Its IC50 is 21.9 nM.

**Q.** `COc1ccc(C(C)Cn2ccnc2NC#N)cc1OC1CCCC1` (single isomer, unassigned) [Compound 13] was tested. Which IC50 did it give?
**A.** Its IC50 is 22.2 nM.

**Q.** For `COc1ccc(C(C)Cn2ccnc2NC#N)cc1OCC1CC1` (single isomer, unassigned) [Compound 14], which IC50 is on record?
**A.** The IC50 was 27.2 nM.

**Q.** For `COc1ccc(C(C)Cn2ccnc2NC#N)cc1OCC1CC1` (single isomer, unassigned) [Compound 15], which IC50 is on record?
**A.** The IC50 was 33.5 nM.

**Q.** For `COc1ccc(C(C)Cn2ccnc2NC#N)cc1OCCCCCc1ccccc1` (single isomer, unassigned) [Compound 18], which IC50 is on record?
**A.** Its IC50 is 40.9 nM.

**Q.** Which IC50 does the source give for `COc1ccc(C(C)Cn2ccnc2NC#N)cc1OCCCCCc1ccccc1` (single isomer, unassigned) [Compound 19] here?
**A.** The IC50 was 37.5 nM.

**Q.** Which IC50 does the source give for `COc1ccc(C(C)Cn2cc[nH]c2=NC#N)cc1OC1CCCC1` (centres unmarked) [Compound 3] here?
**A.** The IC50 was 30 nM.

**Q.** How did the IC50 turn out when `CC(Cn1cc[nH]c1=NC#N)c1ccc(OC(F)F)c(OC2CCCC2)c1` (centres unmarked) [Compound 4] was run?
**A.** Its IC50 is 15.3 nM.

**Q.** For `N#CN=c1[nH]ccn1CCc1ccc(OC(F)F)c(OC2CCCC2)c1` [Compound 5], which IC50 is on record?
**A.** The IC50 was 26.6 nM.

**Q.** Which IC50 does the source give for `CC(Cn1cc[nH]c1=NC#N)c1ccc(OC(F)F)c(OCC2CC2)c1` (centres unmarked) [Compound 6] here?
**A.** The IC50 was 22.4 nM.

**Q.** For `COc1ccc(C(C)Cn2cc[nH]c2=NC#N)cc1OCC1CC1` (centres unmarked) [Compound 8], which IC50 is on record?
**A.** Its IC50 is 56.5 nM.

**Q.** `COc1ccc(C(C)Cn2cc[nH]c2=NC#N)cc1OCCCCCc1ccccc1` (centres unmarked) [Compound 9] was tested. Which IC50 did it give?
**A.** The IC50 was 36.1 nM.

**Q.** For `COc1ccc(C(C)Cn2cc[nH]c2=NC#N)cc1OC1CCOC1` (centres unmarked) [Compound 10], which IC50 is on record?
**A.** Its IC50 is 196 nM.

**Q.** `CC(Cn1ccnc1NC#N)c1ccc(OC(F)F)c(OCCCCCc2ccccc2)c1` (centres unmarked) [Compound 11] was tested. Which IC50 did it give?
**A.** The IC50 was 32.7 nM.

**Q.** Which IC50 does the source give for `COc1ccc(CCn2cc[nH]c2=NC#N)cc1OC1Cc2ccccc2C1` [Compound 20] here?
**A.** The IC50 was 76.5 nM.
